The values below are quoted from earlier work in patent publication US7399860B2, “Manufacture of polyglutamate-therapeutic agent conjugates” (Cell Therapeutics Inc., priority 1999, dated 2008).

For the data set, the system named is tumor. As to conditions: tumor-bearing hosts; U.S. Pat. No. 5,977,163; Li et al. 1998.

For polyglutamic acid-paclitaxel conjugate, the “efficacy compared with the unconjugated form of the drug” value is recorded as “increased efficacy”.
